Bridge positions count the residues as written; N and C are the ends. Square brackets hold non-standard residues; d marks the D form. Peptide text beside a SMILES is read from it. Phe(4-F) = N[C@@H](Cc1ccc(F)cc1)C(=O)O; 2Nal = N[C@@H](Cc1ccc2ccccc2c1)C(=O)O; 4Pal = N[C@@H](Cc1ccncc1)C(=O)O; Cit = NC(=O)NCCC[C@H](N)C(=O)O; NMeK = CN[C@@H](CCCCN)C(=O)O; Dab = NCC[C@H](N)C(=O)O

This passage reports GI50, Hemolysis and IC50 results from patent US8895695B2, “Template-fixed beta-hairpin peptidomimetics with CXCR4 antagonizing activity” (priority 2003, dated 2014).

Series [1] in a line: in vitro. The conditions noted are these: human.
Series [2] has as its system human red blood cells (hRBC). As to the kind of experiment: Hemolysis. Type of series: cell-based. The procedure:
The peptides were tested for their hemolytic activity against human red blood cells (hRBC). Fresh hRBC were washed three times with phosphate buffered saline (PBS) by centrifugation for 10 min at 2000×g. Peptides at a concentration of 100 μM were incubated with 20% v/v hRBC for 1 hour at 37° C. The final erythrocyte concentration was approximately 0.9×10^9 cells per ml. A value of 0% resp. 100% cell lysis was determined by incubation of the hRBC in the presence of PBS alone and respectively 0.1% Triton X-100 in H2O. The samples were centrifuged and the supernatant was 20-fold diluted in PBS buffer and the optical density (OD) of the sample at […] was measured. The 100% lyses value (OD540H2O) gave an OD540 of approximately 1.3-1.8. Percent hemolysis was calculated as follows: (OD540peptide/OD540H2O)×100%.

Series [3] deals with CXCR4 (Homo sapiens, UniProt P61073). Briefly: Ca2+-assay method 2 (Flexstation, SDF-1 induced calcium mobilization). Type of series: cell-based. Also noted: expressed in transfected cells; host or cells: mouse pre-B cell line 300-19. The conditions noted are these: method 2 (Ex. 54-160), mouse pre-B cell line 300-19 with human CXCR4, 10 nM SDF-1; read-out: IC50 (nM) Ca^2+ assay. The procedure: 2.2. Ca^2+-Assay: CXCR4-Antagonizing Activity of the Peptides.
The cells were batch loaded with the Calcium 3 Assay kit (Molecular Devices) in assay buffer (Hanks Balanced salt solution, HBSS, 20 mM HEPES, pH 7.4, 0.1% BSA) for 1 h at room temperature and then 200,000 labeled cells were dispensed into black 96 well assays plates (Costar No. 3603). A 20-fold concentrated solution of peptide in assay buffer was added to the cells and the whole plate was centrifuged to settle the cells to the bottom of the wells. Calcium mobilization induced by 10 nM stromal-derived factor-1 (SDF-1) was measured in the Flexstation 384 (excitation, 485 nM; emission, 525 nM) for 90 seconds. A maximal change in fluorescence response above baseline was used to calculate antagonist activity. The data for dose response curves (antagonist concentration versus % maximum response) were fitted to a four parameter logistic equation using SoftmaxPro 4.6 (Molecular Devices), from which IC50% values were calculated.
(In general: Calcium assays in cells follow changes in intracellular calcium, usually with a dye or a luminescent sensor.)
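Wherever GI50 is given: MTT reduction read as absorbance at 595 nm, blank-corrected and expressed as percent growth relative to the time-zero cell reading, triplicate wells per concentration.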

Sequence of CXCR4 (P61073 whole entry): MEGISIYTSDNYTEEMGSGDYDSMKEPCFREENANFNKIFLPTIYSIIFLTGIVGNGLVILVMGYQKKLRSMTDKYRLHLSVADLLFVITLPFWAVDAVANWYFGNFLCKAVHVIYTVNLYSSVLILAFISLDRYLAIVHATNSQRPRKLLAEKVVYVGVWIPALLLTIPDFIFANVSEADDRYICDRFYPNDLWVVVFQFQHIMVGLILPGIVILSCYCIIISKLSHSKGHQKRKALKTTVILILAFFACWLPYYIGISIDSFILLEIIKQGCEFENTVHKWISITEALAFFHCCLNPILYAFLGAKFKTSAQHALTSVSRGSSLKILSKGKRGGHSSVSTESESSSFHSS

Usually GI50 stands for the concentration that inhibits growth by half. Low values mean greater sensitivity of the cells, high ones lower sensitivity of the cells. By IC50 is commonly meant the point on the concentration scale where inhibition reaches its midpoint. `C[C@@H](O)[C@@H]1NC(=O)[C@H](Cc2ccncc2)NC(=O)[C@H](Cc2ccc(O)cc2)NC(=O)[C@@H]2CCCN2C(=O)[C@H]2CCCN2C(=O)[C@H](CCCCN)NC(=O)[C@H](CCC(N)=O)NC(=O)[C@H](Cc2ccc(O)cc2)NC(=O)[C@@H]2CSSC[C@H](NC1=O)C(=O)N[C@@H](CCCNC(=N)N)C(=O)NCC(=O)N1CCC[C@@H]1C(=O)N[C@@H](CCCNC(=N)N)C(=O)N[C@@H](CCCNC(=N)N)C(=O)N[C@@H](Cc1c[nH]c3ccccc13)C(=O)N2` [Ex. 119] (cyclo(Y[4Pal]TCRG[dP]RRWCYQK[dP]P); disulfide 4-11) gave a GI50 at 48 h in series [1] of 63000 nM. Also, the Hemolysis at 100 μM in series [2] was 0%. The IC50 in series [3] turned out to be 9.4 nM.

In series [1], `C[C@@H](O)[C@@H]1NC(=O)[C@H](CCCNC(=N)N)NC(=O)[C@H](Cc2ccc(O)cc2)NC(=O)[C@@H]2CCCN2C(=O)[C@H]2CCCN2C(=O)[C@H](CCCCN)NC(=O)[C@H](CCC(N)=O)NC(=O)[C@H](Cc2ccc(O)cc2)NC(=O)[C@@H]2CSSC[C@H](NC1=O)C(=O)N[C@@H](CCCNC(=N)N)C(=O)NCC(=O)N1CCC[C@@H]1C(=O)N[C@@H](CCN)C(=O)N[C@@H](CCCNC(=N)N)C(=O)N[C@@H](Cc1ccc3ccccc3c1)C(=O)N2` [Ex. 104] (cyclo(YRTCRG[dP][Dab]R[2Nal]CYQK[dP]P); disulfide 4-11) gave a GI50 at 48 h of 71000 nM. For the same compound, the Hemolysis at 100 μM in series [2] was 0%. Moreover, the IC50 in series [3] came out at 7.4 nM.

In series [1], `C[C@@H]1NC(=O)[C@H](Cc2ccc(O)cc2)NC(=O)[C@@H]2CSSC[C@H](NC(=O)[C@H](CCCNC(N)=O)NC(=O)[C@H](CCCNC(=N)N)NC(=O)[C@H](Cc3ccc(O)cc3)NC(=O)[C@@H]3CCCN3C(=O)[C@H]3CCCN3C(=O)[C@H](CCCCN)NC1=O)C(=O)N[C@@H](CCCNC(=N)N)C(=O)NCC(=O)N1CCC[C@@H]1C(=O)N[C@@H](CCCNC(=N)N)C(=O)N[C@@H](CCCNC(=N)N)C(=O)N[C@@H](Cc1ccc3ccccc3c1)C(=O)N2` [Ex. 80] (cyclo(YR[Cit]CRG[dP]RR[2Nal]CYAK[dP]P); disulfide 4-11) returned a GI50 at 48 h of 44000 nM. The same compound came in with a Hemolysis at 100 μM in series [2] of 0.1%. For the same compound, the IC50 in series [3] was found to be 2.9 nM.

In turn, `CN1C(=O)[C@H](CCCNC(N)=O)NC(=O)[C@H](Cc2ccc(O)cc2)NC(=O)[C@@H]2CSSC[C@H](NC(=O)[C@H](CCCNC(N)=O)NC(=O)[C@H](CCCNC(=N)N)NC(=O)[C@H](Cc3ccc(O)cc3)NC(=O)[C@@H]3CCCN3C(=O)[C@H]3CCCN3C(=O)[C@@H]1CCCCN)C(=O)N[C@@H](CCCNC(=N)N)C(=O)NCC(=O)N1CCC[C@@H]1C(=O)N[C@@H](CCCNC(=N)N)C(=O)N[C@@H](CCCNC(=N)N)C(=O)N[C@@H](Cc1ccc3ccccc3c1)C(=O)N2` [Ex. 127] (cyclo(YR[Cit]CRG[dP]RR[2Nal]CY[Cit][NMeK][dP]P); disulfide 4-11) gave a concentration for 50% growth inhibition (GI50) at 48 h in series [1] of 62000 nM. Besides, the Hemolysis at 100 μM in series [2] was 0%. Besides, the 50% inhibitory concentration (IC50) in series [3] worked out at 52.2 nM.

In turn, `N=C(N)NCCC[C@@H]1NC(=O)[C@@H]2CSSC[C@H](NC(=O)[C@H](Cc3ccc4ccccc4c3)NC(=O)[C@H](CCCNC(=N)N)NC(=O)[C@H](CCCNC(=N)N)NC(=O)[C@H]3CCCN3C(=O)CNC1=O)C(=O)N[C@@H](Cc1ccc(O)cc1)C(=O)N[C@@H](CCCCN)C(=O)N[C@@H](CCCCN)C(=O)N1CCC[C@@H]1C(=O)N1CCC[C@H]1C(=O)N[C@@H](Cc1ccc(O)cc1)C(=O)N[C@@H](CCCNC(=N)N)C(=O)N[C@@H](CCCNC(N)=O)C(=O)N2` [Ex. 79] (cyclo(YR[Cit]CRG[dP]RR[2Nal]CYKK[dP]P); disulfide 4-11) returned a GI50 at 48 h in series [1] of 94000 nM. In series [2], the Hemolysis at 100 μM was found to be 0%. The half-maximal inhibitory concentration (IC50) in series [3] was found to be 2.4 nM.

Compound `C[C@@H](O)[C@@H]1NC(=O)[C@H](Cc2ccc(O)cc2)NC(=O)[C@@H]2CSSC[C@H](NC(=O)[C@H](CCCNC(N)=O)NC(=O)[C@H](CCCNC(=N)N)NC(=O)[C@H](Cc3ccc(O)cc3)NC(=O)[C@@H]3CCCN3C(=O)[C@H]3CCCN3C(=O)[C@H](CCCCN)NC1=O)C(=O)N[C@@H](CCCNC(=N)N)C(=O)NCC(=O)N1CCC[C@@H]1C(=O)N[C@@H](CCCNC(=N)N)C(=O)N[C@@H](CCCNC(=N)N)C(=O)N[C@@H](Cc1ccc3ccccc3c1)C(=O)N2` [Ex. 133] (cyclo(YR[Cit]CRG[dP]RR[2Nal]CYTK[dP]P); disulfide 4-11) displayed a GI50 at 48 h in series [1] of 45000 nM. Further, the Hemolysis at 100 μM in series [2] was 0.1%. The IC50 in series [3] was 5.3 nM.

The compound `N=C(N)NCCC[C@@H]1NC(=O)[C@@H]2CSSC[C@H](NC(=O)[C@H](Cc3c[nH]c4ccccc34)NC(=O)[C@H](CCCNC(=N)N)NC(=O)[C@H](CCCNC(N)=O)NC(=O)[C@H]3CCCN3C(=O)CNC1=O)C(=O)N[C@@H](Cc1ccc(O)cc1)C(=O)N[C@@H](CCCNC(N)=O)C(=O)N[C@@H](CCCCN)C(=O)N1CCC[C@@H]1C(=O)N1CCC[C@H]1C(=O)N[C@@H](Cc1ccc(O)cc1)C(=O)N[C@@H](CCCNC(=N)N)C(=O)N[C@@H](CCCNC(N)=O)C(=O)N2` [Ex. 136] (cyclo(YR[Cit]CRG[dP][Cit]RWCY[Cit]K[dP]P); disulfide 4-11) showed a GI50 at 48 h in series [1] above 100000 nM. In series [2], the Hemolysis at 100 μM worked out at 0%. Moreover, the IC50 in series [3] came out at 4.1 nM.

`N=C(N)NCCC[C@@H]1NC(=O)[C@@H]2CSSC[C@H](NC(=O)[C@H](Cc3ccc4ccccc4c3)NC(=O)[C@H](CCCNC(=N)N)NC(=O)[C@H](CCN)NC(=O)[C@H]3CCCN3C(=O)CNC1=O)C(=O)N[C@@H](Cc1ccc(O)cc1)C(=O)N[C@@H](CCCNC(N)=O)C(=O)N[C@@H](CCCCN)C(=O)N1CCC[C@@H]1C(=O)N1CCC[C@H]1C(=O)N[C@@H](Cc1ccc(O)cc1)C(=O)N[C@@H](CCCNC(=N)N)C(=O)N[C@@H](CCCNC(N)=O)C(=O)N2` [Ex. 134] (cyclo(YR[Cit]CRG[dP][Dab]R[2Nal]CY[Cit]K[dP]P); disulfide 4-11) came in with a GI50 at 48 h in series [1] of 21000 nM. The same compound showed a Hemolysis at 100 μM in series [2] of 0%. Moreover, in series [3], the half-maximal inhibitory concentration (IC50) is 1.7 nM.

Take `N=C(N)NCCC[C@@H]1NC(=O)[C@@H]2CSSC[C@H](NC(=O)[C@H](Cc3ccc4ccccc4c3)NC(=O)[C@H](CCCNC(=N)N)NC(=O)[C@H](CCCNC(=N)N)NC(=O)[C@H]3CCCN3C(=O)CNC1=O)C(=O)N[C@@H](Cc1ccc(O)cc1)C(=O)N[C@@H](CCC(N)=O)C(=O)N[C@@H](CCCCN)C(=O)N1CCC[C@@H]1C(=O)N1CCC[C@H]1C(=O)N[C@@H](Cc1ccc(O)cc1)C(=O)N[C@@H](CCCNC(=N)N)C(=O)N[C@@H](Cc1ccc(F)cc1)C(=O)N2` [Ex. 99] (cyclo(YR[Phe(4-F)]CRG[dP]RR[2Nal]CYQK[dP]P); disulfide 4-11): in series [1], the GI50 at 48 h is 40000 nM. For the same compound, the Hemolysis at 100 μM in series [2] turned out to be 1.1%. Further, the IC50 in series [3] is 4.2 nM.

With `CC(C)C[C@@H]1NC(=O)[C@H](Cc2ccc(O)cc2)NC(=O)[C@@H]2CSSC[C@H](NC(=O)[C@H](CCCNC(N)=O)NC(=O)[C@H](CCCNC(=N)N)NC(=O)[C@H](Cc3ccc(O)cc3)NC(=O)[C@@H]3CCCN3C(=O)[C@H]3CCCN3C(=O)[C@H](CCCCN)NC1=O)C(=O)N[C@@H](CCCNC(=N)N)C(=O)NCC(=O)N1CCC[C@@H]1C(=O)N[C@@H](CCCNC(=N)N)C(=O)N[C@@H](CCCNC(=N)N)C(=O)N[C@@H](Cc1ccc3ccccc3c1)C(=O)N2` [Ex. 82] (cyclo(YR[Cit]CRG[dP]RR[2Nal]CYLK[dP]P); disulfide 4-11), in series [1], it took 40000 nM to inhibit growth by half (GI50 at 48 h). The compound also gave a Hemolysis at 100 μM in series [2] of 0%. In series [3], the concentration for half-maximal inhibition (IC50) amounted to 4.8 nM.

For the compound `C[C@@H](O)[C@@H]1NC(=O)[C@H](CCCNC(=N)N)NC(=O)[C@H](Cc2ccc(O)cc2)NC(=O)[C@@H]2CCCN2C(=O)[C@H]2CCCN2C(=O)[C@H](CCCCN)NC(=O)[C@H](CCCNC(N)=O)NC(=O)[C@H](Cc2ccc(O)cc2)NC(=O)[C@@H]2CSSC[C@H](NC1=O)C(=O)N[C@@H](CCCNC(=N)N)C(=O)NCC(=O)N1CCC[C@@H]1C(=O)N[C@@H](CCCNC(=N)N)C(=O)N[C@@H](CCCNC(=N)N)C(=O)N[C@@H](Cc1ccc3ccccc3c1)C(=O)N2` [Ex. 131] (cyclo(YRTCRG[dP]RR[2Nal]CY[Cit]K[dP]P); disulfide 4-11), halving of growth in series [1] (GI50 at 48 h) required 53000 nM. Besides, the Hemolysis at 100 μM in series [2] stood at 0%. The 50% inhibitory concentration (IC50) in series [3] was 2.4 nM.

With `C[C@@H](O)[C@@H]1NC(=O)[C@H](CCCNC(=N)N)NC(=O)[C@H](Cc2ccc(O)cc2)NC(=O)[C@@H]2CCCN2C(=O)[C@H]2CCCN2C(=O)[C@H](CCCCN)NC(=O)[C@H](CCC(N)=O)NC(=O)[C@H](Cc2ccc(O)cc2)NC(=O)[C@@H]2CSSC[C@H](NC1=O)C(=O)N[C@@H](CCCNC(=N)N)C(=O)NCC(=O)N1CCC[C@@H]1C(=O)N[C@@H](Cc1ccncc1)C(=O)N[C@@H](CCCNC(=N)N)C(=O)N[C@@H](Cc1c[nH]c3ccccc13)C(=O)N2` [Ex. 118] (cyclo(YRTCRG[dP][4Pal]RWCYQK[dP]P); disulfide 4-11), the 50% growth inhibitory concentration (GI50) at 48 h in series [1] was 52000 nM. Further, the Hemolysis at 100 μM in series [2] stood at 0%. Also, the IC50 in series [3] came out at 7.6 nM.
